Test system: Fibroblast L 929
Assay: Cytotoxic effect of PDT on fibroblasts (MTT)
Type: cell-based
Details: 100 μM photosensitiser, oxygen carrier, 20 min irradiation, MTT after 24 hours; hypochlorite 100 μL of 5.25%
Experimental: The experiment described below was performed to assess the cytotoxic effect of PDT in combination with two photosensitisers: […] Sodium hypochlorite is traditionally used to disinfect root canals. Fibroblast L 929 was used in this experiment. Approximately 3.2×10^5 cells were seeded in 4 cm diameter culture dishes in DMEM media supplemented with 10% FCS. Cells were grown by incubating at 37° C., in a carbon dioxide incubator for 24 hours. After the incubation period, 100 μL of ICG (1 mM) was added (the final concentration of ICG was 100 μM). 100 μL of oxygen carrier, perfluorodecahydro naphthalene,] was also added and irradiation was performed for 20 minutes (without shaking). The cells were left in the media for 24 hours under incubation. Later, the supernatant media was removed without disturbing the cell line. The cell layer was washed with 1 mL PBS twice. MTT (0.125 mg % in DMEM), as an indicator of the viable status of cells in the media was added to the Petri dish and incubated at 37° C., for 4 hours. The excess of dye was washed with PBS (2 mL). MTT formed in the Petri dish was extracted and added to 1 mL of DMSO. The optical density at 570 nm was measured. Sodium hypochlorite (100 μL of 5.25%) was used as a control in this experiment. All chemicals were purchased from Sigma Aldrich, St. Louis. Fibroblast L 929 was used in this experiment. […] The optical density at 570 nm was measured. […]

CC1(C)C(/C=C/C=C/C=C/C=C2\N(CCCCS(=O)(=O)O)c3ccc4ccccc4c3C2(C)C)=[N+](CCCCS(=O)(=O)[O-])c2ccc3ccccc3c21 [ICG, Indocyanine Green]
cytotoxicity (cells surviving after PDT, ranking): lesser cytotoxicity

Source: US20090285766A1, “Photosensitising Composition and Uses Thereof” (National University of Singapore, priority 2005, published 2009)
